Consider 22 molecules from patent US8901315B2, “Thienopyrazole derivative having PDE7 inhibitory activity” (Daiichi Sankyo Company, Limited, priority 2004, dated 2014).

What is called IC50 is the midpoint of a concentration-inhibition curve.

Assay [1] has as its target PDE 4 (phosphodiesterase IV). Nature of the assay: PDE 4 inhibiting effect (3H-cAMP hydrolysis, PDE 4 active fraction from Balb/c mouse liver). Type of assay: biochemical. The note with it: PDE 4 fraction from Balb/c mice liver, 0.064 μM cAMP, 2 hours at 25° C.; read-out: PDE4 IC50. The procedure, abridged: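 PDE4 was taken from the soluble liver fraction of male Balb/c mice (12 weeks), purified on DEAE sepharose with a sodium acetate gradient. Inhibition was measured as hydrolysis of 3H-cAMP. The reaction was followed by Sephadex-QAE treatment in HEPES-Na pH 7.0.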

Assay [2] deals with PDE 7 (phosphodiesterase VII) (Homo sapiens (Human), UniProt Q13946). The assay is described as follows: PDE 7 inhibiting effect (3H-cAMP hydrolysis, PDE 7 active fraction from MOLT-4 cells). Type of assay: biochemical. The note with it: PDE 7 fraction from MOLT-4 cells, 0.064 μM cAMP, 10 μM rolipram, 2 hours at 25° C.; read-out: PDE7 IC50. In short, it runs like this:
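PDE7 taken from the soluble fraction of human MOLT-4 T cells (homogenised in pH 7.5 Tris buffer, 100,000×G spin), partially purified on HiTrap Q with a 0–0.8 M NaCl gradient. Inhibition measured as ³H-cAMP hydrolysis, with product separated using Sephadex-QAE in 10 mM HEPES-Na pH 7.0.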

PDE 7 (phosphodiesterase VII), sequence (Q13946 whole entry): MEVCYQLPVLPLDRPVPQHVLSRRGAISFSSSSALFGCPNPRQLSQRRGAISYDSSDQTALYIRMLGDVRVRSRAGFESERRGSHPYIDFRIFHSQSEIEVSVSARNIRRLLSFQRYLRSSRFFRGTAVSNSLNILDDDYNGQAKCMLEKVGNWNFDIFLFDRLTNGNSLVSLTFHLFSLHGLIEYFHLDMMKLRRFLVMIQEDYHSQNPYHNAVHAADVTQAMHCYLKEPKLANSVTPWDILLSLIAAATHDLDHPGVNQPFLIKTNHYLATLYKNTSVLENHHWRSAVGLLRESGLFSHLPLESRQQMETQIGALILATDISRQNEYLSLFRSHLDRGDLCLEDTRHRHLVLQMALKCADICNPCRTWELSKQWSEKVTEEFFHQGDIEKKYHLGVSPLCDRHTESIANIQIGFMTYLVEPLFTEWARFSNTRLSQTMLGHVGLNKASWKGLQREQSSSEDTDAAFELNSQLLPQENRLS

For `Cc1nn(C2CCCCC2)c2sc(C(=O)N[C@H]3CC[C@H](N4CCNC4=O)CC3)cc12` [Example 271, 1-Cyclohexyl-3-methyl-N-[trans-4-(2-oxo-1-imidazolidinyl)-cyclohexyl]-1H-thieno[2,3-c]pyrazole-5-carboxamide], the IC50 turned out to be 2100 nM in assay [1] and 8.9 nM in assay [2].

For the molecule `Cc1nn(C2CCCCC2)c2sc(C(=O)N[C@H]3CC[C@H](N4C(=O)CCC4=O)CC3)cc12` [Example 273, 1-Cyclohexyl-N-[trans-4-(2,5-dioxo-1-pyrrolidinyl)cyclohexyl]-3-methyl-1H-thieno[2,3-c]pyrazole-5-carboxamide], the figures for the IC50 in assay [1] and in assay [2] were 1600 nM and 14 nM, respectively.

For `Cc1nn(C2CCCCC2)c2sc(C(=O)N[C@H]3CC[C@H](N4CCCS4(=O)=O)CC3)cc12` [Example 274, 1-Cyclohexyl-N-[trans-(1,1-dioxide-2-isothiazolidinyl)cyclohexyl]-3-methyl-1H-thieno[2,3-c]pyrazole-5-carboxamide], the IC50 in assay [1] came out at 1700 nM; in assay [2], 9.9 nM.

Consider `Cc1nn(C2CCCCC2)c2sc(C(=O)N[C@H]3CC[C@H](NC(=O)N(C)CC(=O)OCc4ccccc4)CC3)cc12` [Example 275, Benzyl [{[(trans-4-{[(1 cyclohexyl-3-methyl-1H-thieno[2,3-c]pyrazol-5-yl)carbonyl]amino}cyclohexyl)amino]carbonyl}(methyl)amino]acetate], for which the IC50 in assay [1] was determined as 1200 nM; in assay [2], 4 nM.

For `Cc1nn(C2CCCCC2)c2sc(C(=O)NCCN3C(=O)CN(C)C3=O)cc12` [Example 277, 1-Cyclohexyl-3-methyl-N-[2-(3-methyl-2,5-dioxo-1-imidazolidinyl)-ethyl]-1H-thieno[2,3-c]pyrazole-5-carboxamide], the IC50 came out at 7800 nM in assay [1] and 32 nM in assay [2].

As for `Cc1nn(C2CCCCC2)c2sc(C(=O)N[C@H]3CC[C@H](N4CCN(C)C4=O)CC3)cc12` [Example 280], the IC50 in assay [1] turned out to be 1900 nM; in assay [2], 17 nM.

In the case of `Cc1nn(C2CCCCC2)c2sc(C(=O)NCCN3CCN(C)C3=O)cc12` [Example 302, 1-Cyclohexyl-3-methyl-N-[2-(3-methyl-2-oxo-imidazolidinyl)ethyl]-1H-thieno[2,3-c]pyrazole-5-carboxamide], the 50% inhibitory concentration (IC50) in assay [1] was 6100 nM; in assay [2], 60 nM.

On to `Cc1nn(C2CCCCC2)c2sc(C(=O)NCCN3C(=O)CNC3=O)cc12` [Example 305, 1-Cyclohexyl-N-[2-(2,5-dioxo-1-imidazolidinyl)ethyl]-3-methyl-1H-thieno[2,3-c]pyrazole-5-carboxamide], for which the IC50 is 6800 nM in assay [1] and 66 nM in assay [2].

Turning to `CCN1C(=O)CN(CCNC(=O)c2cc3c(C)nn(C4CCCCC4)c3s2)C1=O` [Example 316, 1-Cyclohexyl-N-[2-(3-ethyl-2,4-dioxo-1-imidazolidinyl)ethyl]-3-methyl-1H-thieno[2,3-c]pyrazole-5-carboxamide], the IC50 in assay [1] is 15000 nM; in assay [2], 97 nM.

Turning to `Cc1nn(C2CCCCC2)c2sc(C(=O)NCCN3CC(=O)N(C)C3=O)cc12` [Example 317, 1-Cyclohexyl-3-methyl-N-[2-(3-methyl-2,4-dioxo-1-imidazolidinyl)-ethyl]-1H-thieno[2,3-c]pyrazole-5-carboxamide], the IC50 in assay [1] stood at 12000 nM; in assay [2], 67 nM.

In the case of `Cc1nn(C2CCCCC2)c2sc(C(=O)N[C@H](C)CN3C(=O)CNC3=O)cc12` [Example 325, 1-Cyclohexyl-N-[(1R)-2-(2,5-dioxo-1-imidazolidinyl)-1-methylethyl]-3-methyl-1H-thieno[2,3-c]pyrazole-5-carboxamide], the IC50 in assay [1] is 4000 nM; in assay [2] it was 34 nM.

On to `CC[C@H](CN1C(=O)CNC1=O)NC(=O)c1cc2c(C)nn(C3CCCCC3)c2s1` [Example 331, 1-Cyclohexyl-N-{(1R)-1-[(2,5-dioxo-1-imidazolidinyl)methyl]propyl}-3-methyl-1H-thieno[2,3-c]pyrazole-5-carboxamide], for which the IC50 in assay [1] was 4900 nM; in assay [2], 29 nM.

Consider `Cc1nn(C2CCCCC2)c2sc(C(=O)NCC(C)(C)CN3C(=O)CNC3=O)cc12` [Example 339, 1-Cyclohexyl-N-[3-(2,5-dioxo-1-imidazolidinyl)-2,2-dimethylpropyl]-3-methyl-1H-thieno[2,3-c]pyrazole-5-carboxamide], for which the half-maximal inhibitory concentration (IC50) is 5100 nM in assay [1] and 20 nM in assay [2].

Take `Cc1nn(C2CCCCC2)c2sc(C(=O)Nc3ccc(N4CCNC(=O)C4)cc3)cc12` [Example 341, 1-Cyclohexyl-3-methyl-N-[4-(3-oxo-1-piperazinyl)phenyl]-1H-thieno[2,3-c]pyrazole-5-carboxamide]: the IC50 in assay [1] turned out to be 1800 nM; in assay [2] it was 5 nM.

As for `Cc1nn(C2CCOCC2)c2sc(C(=O)Nc3ccc(N4CCNC(=O)C4)cc3)cc12` [Example 342, 3-Methyl-N-[4(3-oxo-1-piperazinyl)phenyl]-1-tetrahydro-2H-pyran-4-yl-1H-thieno[2,3-c]pyrazole-5-carboxamide], the values for the IC50 in assay [1] and in assay [2] were 4600 nM and 28 nM, respectively.

`Cc1nn(C2CCOCC2)c2sc(C(=O)N[C@H]3CC[C@H](C(=O)N(C)C)CC3)cc12` [Example 349, N-{trans-4-[(Dimethylamino)carbonyl]cyclohexyl}-3-methyl-1-tetrahydro-2H-pyran-4-yl-1H-thieno[2,3-c]pyrazole-5-carboxamide]: the IC50 was found to be 2800 nM in assay [1] and 78 nM in assay [2].

Take `CC(=O)N1CCN(C[C@H]2CC[C@H](NC(=O)c3cc4c(C)nn(C5CCOCC5)c4s3)CC2)CC1` [Example 360, N-{trans-4-[(4-Acetyl-1-piperazinyl)methyl]cyclohexyl}-3-methyl-1-tetrahydro-2H-pyran-4-yl-1H-thieno[2,3-c]pyrazole-5-carboxamide]: the IC50 came to 7900 nM in assay [1] and 57 nM in assay [2].

Consider `Cc1nn(C2CCCCC2)c2sc(C(=O)Nc3ccc(N4CCC(O)CC4)nc3)cc12` [Example 370, 1-Cyclohexyl-N-[6-(4-hydroxy-1-piperidinyl)-3-pyridinyl]-3-methyl-1H-thieno[2,3-c]pyrazole-5-carboxamide], for which the 50% inhibitory concentration (IC50) is 4100 nM in assay [1] and 8.7 nM in assay [2].

Take `Cc1nn(C2CCCCC2)c2sc(C(=O)Nc3ccc(N4CCC(O)CC4)c(F)c3F)cc12` [Example 371, 1-Cyclohexyl-N-[2,3-difluoro-4-(4-hydroxy-1-piperidinyl)phenyl]-3-methyl-1H-thieno[2,3-c]pyrazole-5-carboxamide]: the values for the IC50 in assay [1] and in assay [2] were 3600 nM and 17 nM, respectively.

Take `Cc1cc(NC(=O)c2cc3c(C)nn(C4CCCCC4)c3s2)ccc1N1CCC(O)CC1` [Example 372]: the IC50 was found to be 4000 nM in assay [1] and 11 nM in assay [2].

Consider `Cc1nn(C2CCCCC2)c2sc(C(=O)Nc3ccc(N4CCC(O)CC4)c(C#N)c3)cc12` [Example 373, N-[3-Cyano-4-(4-hydroxy-1-piperidinyl)phenyl]-cyclohexyl-3-methyl-1H-thieno[2,3-c]pyrazole-5-carboxamide], for which the IC50 in assay [1] was determined as 3400 nM; in assay [2], 4.5 nM.

As to `Cc1nn(C2CCCCC2)c2sc(C(=O)Nc3ccc(N4CCC(O)CC4)c(C(=O)O)c3)cc12` [Example 375], the IC50 in assay [1] was 930 nM; in assay [2], 7.2 nM.
